Results as given in patent publication US7700633B2, “Organic compounds” (Novartis AG, priority 2005, dated 2010).

Experiments:
human PTP-1B = target: T1, human PTP-1B (Homo sapiens, UniProt P18031); experiment: PTP-1B inhibitory activity in vitro (IC50); type: biochemical
T1 construct: recombinant human PTP-1B[1-298] or PTP-1B[1-322]
T1 sequence (P18031 1-298 limits assumed): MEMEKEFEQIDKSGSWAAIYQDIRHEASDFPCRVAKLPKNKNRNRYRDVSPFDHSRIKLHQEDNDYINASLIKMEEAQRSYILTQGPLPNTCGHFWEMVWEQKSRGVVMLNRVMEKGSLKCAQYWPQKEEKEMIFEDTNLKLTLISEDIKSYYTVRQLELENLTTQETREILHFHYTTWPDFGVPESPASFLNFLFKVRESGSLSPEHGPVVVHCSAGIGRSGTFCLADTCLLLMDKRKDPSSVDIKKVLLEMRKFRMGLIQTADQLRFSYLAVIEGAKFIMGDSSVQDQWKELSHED
Method: Assessment of human PTP-1B (hPTP-1B) activity in the presence of various agents is determined by measuring the amount of inorganic phosphate released from a phosphopeptide substrate using a 96-well microtiter plate format. The assay (100 μL) is performed in an assay buffer comprised of 50 mM TRIS (pH 7.5), 50 mM NaCl, 3 mM DTT at ambient temperature. The assay is typically performed in the presence of 0.4% dimethyl sulfoxide (DMSO). However, concentrations as high as 10% are used with certain poorly soluble compounds. […] Inorganic phosphate, a product of the enzyme reaction, is quantitiated after 15 min as the green color resulting from complexing with the Malichite reagent and is determined as an A620 using a Molecular Devices (Sunnyvale, Calif.) SpectraMAX Plus spectrophotometer. […] Activity is defined as the net change in absorbance resulting from the activity of the uninhibited hPTP-1B[1-411] minus that of a tube with acid-inactivated hPTP-1B[1-411]. […]
Alternatively, the assessment of human PTP-1B activity in the presence of various agents may be determined by measuring the hydrolysis products of known competing substrates. For example, cleavage of substrate para-nitrophenylphosphate (pNPP) results in the release of the yellow-colored para-nitrophenol (pNP) which can be monitored in real time using a spectrophotometer. […]

melting point [°C]	IC50 (human PTP-1B) [nM]	Compound
226 to 228	–	COc1cc2cc(N3CC(=O)NS3(=O)=O)c(O)cc2oc1=O [Example 70, 5-(7-Hydroxy-3-methoxy-2-oxo-2H-chromen-6-yl)-1,1-dioxo-1,2,5-thiadiazolidin-3-one]
–	85	O=C1CN(c2cc3cc(C4CCCC4)ccc3cc2O)S(=O)(=O)N1 [Example No. 22, 5-(7-Cyclopentyl-3-hydroxynaphthalen-2-yl)-1,1-dioxo-1,2,5-thiadiazolidin-3-one]
–	113	O=C1CN(c2cc3cc(C4CCCCC4)ccc3cc2O)S(=O)(=O)N1 [Example No. 23, 5-(7-Cyclohexyl-3-hydroxynaphthalen-2-yl)-1,1-dioxo-1,2,5-thiadiazolidin-3-one]
